Sander's compilation of Henry's law constants (doi:10.1021/je00026a010)

experiment: Henry solubility constant Hcp at 298.15 K (mol/(m3 Pa)); details: reference: Leighton and Calo (1981)

Row | SMILES | Henry solubility constant Hcp
1 | CC(Cl)(Cl)Cl [1,1,1-trichloroethane] | 0.00049
2 | ClC(Cl)C(Cl)Cl [1,1,2,2-tetrachloroethane] | 0.027
3 | ClCC(Cl)Cl [1,1,2-trichloroethane] | 0.012
4 | C=C(Cl)Cl [1,1-dichloroethene] | 0.00026
5 | ClCC(Cl)CCl [1,2,3-trichloropropane] | 0.029
6 | CC(Cl)CCl (stereo not given) [1,2-dichloropropane] | 0.0034
7 | ClCCCCl [1,3-dichloropropane] | 0.01
8 | ClCCCCCl [1,4-dichlorobutane] | 0.02
9 | ClCCCCCCl [1,5-dichloropentane] | 0.018
10 | CCCCCl [1-chlorobutane] | 0.00059
11 | CCCCCCCl [1-chlorohexane] | 0.00041
12 | CCCCCCl [1-chloropentane] | 0.00041
13 | CCC(C)Cl (stereo not given) [2-chlorobutane] | 0.00041
14 | c1ccccc1 [benzene] | 0.0018
15 | Clc1ccccc1 [chlorobenzene] | 0.003
16 | ClCCl [dichloromethane] | 0.003
17 | Cc1ccccc1 [methylbenzene] | 0.0015
18 | ClC(Cl)=C(Cl)Cl [tetrachloroethene] | 0.00061
19 | ClC(Cl)(Cl)Cl [tetrachloromethane] | 0.00036
20 | ClC=C(Cl)Cl [trichloroethene] | 0.001
